In publication PMC9386376, “Discovery of spirooxindole-derived small-molecule compounds as novel HDAC/MDM2 dual inhibitors and investigation of their anticancer activity” (Frontiers in Oncology, 2022):

Columns and labels:
[1] = target: T1, GST-tagged MDM2 (Homo sapiens, UniProt Q00987); assay: HTRF enzyme inhibition assay, MDM2; format: biochemical; conditions: compound at 1 μM
T1 construct: purchased Cisbio Co. Ltd
Protocol: The enzymatic assay of test compounds is using the HTRF-based method provided by Cisbio Co. Ltd. In brief, the target compounds to be tested were prepared into samples with a concentration of 1 μM, which was added to GST-tagged MDM2 and HDAC1 proteins, respectively, then biotinylated substrate p53 peptide and HTRF detection reagents were added. The data obtained were processed by the ratio method, and the inhibition rates of MDM2 and HDAC1 were calculated. The detailed experimental procedures are according to the manufacturer’s protocols.

[2] = target: HDAC1 (Homo sapiens, UniProt Q13547); assay: HTRF enzyme inhibition assay, HDAC1; conditions: for inhibition at 1 µM: read-out: % enzyme inhibition HDAC; for % enzyme inhibition HDAC: compound at 1 μM, HTRF, method names HDAC1 protein
Chain of HDAC1 (Q13547 whole entry): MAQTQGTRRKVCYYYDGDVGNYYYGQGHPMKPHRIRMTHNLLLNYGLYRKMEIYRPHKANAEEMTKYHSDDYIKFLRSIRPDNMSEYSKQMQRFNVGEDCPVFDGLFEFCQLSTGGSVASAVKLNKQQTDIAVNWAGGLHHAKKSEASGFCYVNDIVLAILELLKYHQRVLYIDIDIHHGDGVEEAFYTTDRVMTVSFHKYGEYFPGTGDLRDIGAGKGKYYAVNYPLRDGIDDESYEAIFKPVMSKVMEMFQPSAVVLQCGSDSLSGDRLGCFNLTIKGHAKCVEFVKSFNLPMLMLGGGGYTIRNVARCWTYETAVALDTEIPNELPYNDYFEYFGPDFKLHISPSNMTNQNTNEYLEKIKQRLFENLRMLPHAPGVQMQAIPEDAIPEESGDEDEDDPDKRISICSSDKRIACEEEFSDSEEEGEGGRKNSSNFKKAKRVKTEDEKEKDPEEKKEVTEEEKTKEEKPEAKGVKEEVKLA

T1 sequence (Q00987 whole entry): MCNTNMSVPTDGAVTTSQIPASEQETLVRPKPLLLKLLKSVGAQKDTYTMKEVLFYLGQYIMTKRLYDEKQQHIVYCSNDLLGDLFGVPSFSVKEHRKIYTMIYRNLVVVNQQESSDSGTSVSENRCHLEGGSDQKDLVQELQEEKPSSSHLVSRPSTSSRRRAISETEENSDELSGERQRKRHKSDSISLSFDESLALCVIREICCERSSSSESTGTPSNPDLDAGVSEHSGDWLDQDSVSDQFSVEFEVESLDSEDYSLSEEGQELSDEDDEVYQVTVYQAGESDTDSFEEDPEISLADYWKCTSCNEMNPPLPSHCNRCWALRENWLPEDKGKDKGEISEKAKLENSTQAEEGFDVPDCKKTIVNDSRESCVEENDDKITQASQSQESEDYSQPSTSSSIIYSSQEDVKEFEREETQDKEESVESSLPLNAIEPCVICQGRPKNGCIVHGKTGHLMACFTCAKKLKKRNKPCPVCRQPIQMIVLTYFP

| Molecule | melting point | inhibition at 1 µM [1] | inhibition at 1 µM [2] | % enzyme inhibition MDM2 [1] | % enzyme inhibition HDAC [2] |
| --- | --- | --- | --- | --- | --- |
| O=C(CCCCCCC(=O)Nc1ccc([C@@H]2[C@H]3CSCN3[C@]3(C(=O)Nc4ccccc43)[C@H]2C(=O)c2ccccc2)cc1)NO [7a, N^1-(4-((3R,6'S,7'R,7a'S)-6'-benzoyl-2-oxo-1',6',7',7a'-tetrahydro-3'H-spiro[indoline-3,5'-pyrrolo[1,2-c]thiazol]-7'-yl)phenyl)-N^8-hydroxyoctanediamide] | 144.7 to 146.1 °C | 39% | 69% |  |  |
| Cc1ccc2c(c1)[C@@]1(C(=O)N2)[C@@H](C(=O)c2ccccc2)[C@H](c2ccc(NC(=O)CCCCCCC(=O)NO)cc2)[C@H]2CSCN21 [7b, N^1-(4-((3R,6'S,7'R,7a'S)-6'-benzoyl-5-methyl-2-oxo-1',6',7',7a'-tetrahydro-3'H-spiro[indoline-3,5'-pyrrolo[1,2-c]thiazol]-7'-yl)phenyl)-N^8-hydroxyoctanediamide] | 144.2 to 145.6 °C | 45% | 71% |  |  |
| O=C(CCCCCCC(=O)Nc1ccc([C@@H]2[C@H]3CSCN3[C@]3(C(=O)Nc4ccc(F)cc43)[C@H]2C(=O)c2ccccc2)cc1)NO [7c, N^1-(4-((3R,6'S,7'R,7a'S)-6'-benzoyl-5-fluoro-2-oxo-1',6',7',7a'-tetrahydro-3'H-spiro[indoline-3,5'-pyrrolo[1,2-c]thiazol]-7'-yl)phenyl)-N^8-hydroxyoctanediamide] | 144.3 to 145.7 °C | 51% | 68% |  |  |
| O=C(CCCCCCC(=O)Nc1ccc([C@@H]2[C@H]3CSCN3[C@]3(C(=O)Nc4ccc(Cl)cc43)[C@H]2C(=O)c2ccccc2)cc1)NO [7d, N^1-(4-((3R,6'S,7'R,7a'S)-6'-benzoyl-5-chloro-2-oxo-1',6',7',7a'-tetrahydro-3'H-spiro[indoline-3,5'-pyrrolo[1,2-c]thiazol]-7'-yl)phenyl)-N^8-hydroxyoctanediamide] | 154.6 to 156.2 °C | 49% | 67% |  |  |
| O=C(CCCCCCC(=O)Nc1ccc([C@@H]2[C@H]3CSCN3[C@]3(C(=O)Nc4ccc(Br)cc43)[C@H]2C(=O)c2ccccc2)cc1)NO [7e, N^1-(4-((3R,6'S,7'R,7a'S)-6'-benzoyl-5-bromo-2-oxo-1',6',7',7a'-tetrahydro-3'H-spiro[indoline-3,5'-pyrrolo[1,2-c]thiazol]-7'-yl)phenyl)-N^8-hydroxyoctanediamide] | 146.8 to 148 °C | 48% | 72% |  |  |
| O=C(CCCCCCC(=O)Nc1ccc([C@@H]2[C@H]3CSCN3[C@]3(C(=O)Nc4cc(Br)ccc43)[C@H]2C(=O)c2ccccc2)cc1)NO [7g, N^1-(4-((3R,6'S,7'R,7a'S)-6'-benzoyl-6-bromo-2-oxo-1',6',7',7a'-tetrahydro-3'H-spiro[indoline-3,5'-pyrrolo[1,2-c]thiazol]-7'-yl)phenyl)-N^8-hydroxyoctanediamide] | 149.8 to 152.1 °C | 59% | 68% |  |  |
| Cc1cccc2c1NC(=O)[C@@]21[C@@H](C(=O)c2ccccc2)[C@H](c2ccc(NC(=O)CCCCCCC(=O)NO)cc2)[C@H]2CSCN21 [7h, N^1-(4-((3R,6'S,7'R,7a'S)-6'-benzoyl-7-methyl-2-oxo-1',6',7',7a'-tetrahydro-3'H-spiro[indoline-3,5'-pyrrolo[1,2-c]thiazol]-7'-yl)phenyl)-N^8-hydroxyoctanediamide] | 142.7 to 143.9 °C | 23% | 71% |  |  |
| O=C(CCCCCCC(=O)Nc1ccc([C@@H]2[C@H]3CSCN3[C@]3(C(=O)Nc4c(Br)cccc43)[C@H]2C(=O)c2ccccc2)cc1)NO [7i, N^1-(4-((3R,6'S,7'R,7a'S)-6'-benzoyl-7-bromo-2-oxo-1',6',7',7a'-tetrahydro-3'H-spiro[indoline-3,5'-pyrrolo[1,2-c]thiazol]-7'-yl)phenyl)-N^8-hydroxyoctanediamide] | 137.5 to 138.9 °C | 30% | 67% |  |  |
| COc1ccc2c(c1)[C@@]1(C(=O)N2)[C@@H](C(=O)c2ccccc2)[C@H](c2ccc(NC(=O)CCCCCCC(=O)NO)cc2)[C@H]2CSCN21 [7j, N^1-(4-((3R,6'S,7'R,7a'S)-6'-benzoyl-5-methoxy-2-oxo-1',6',7',7a'-tetrahydro-3'H-spiro[indoline-3,5'-pyrrolo[1,2-c]thiazol]-7'-yl)phenyl)-N^8-hydroxyoctanediamide] | 134.9 to 136.2 °C | 50% | 70% |  |  |
| COc1ccc2c(c1)NC(=O)[C@@]21[C@@H](C(=O)c2ccccc2)[C@H](c2ccc(NC(=O)CCCCCCC(=O)NO)cc2)[C@H]2CSCN21 [7k, N^1-(4-((3R,6'S,7'R,7a'S)-6'-benzoyl-6-methoxy-2-oxo-1',6',7',7a'-tetrahydro-3'H-spiro[indoline-3,5'-pyrrolo[1,2-c]thiazol]-7'-yl)phenyl)-N^8-hydroxyoctanediamide] |  | 54% | 70% |  |  |
| COc1cccc(C(=O)[C@H]2[C@H](c3ccc(NC(=O)CCCCCCC(=O)NO)cc3)[C@H]3CSCN3[C@]23C(=O)Nc2ccccc23)c1 [7l, N^1-hydroxy-N^8-(4-((3R,6'S,7'R,7a'S)-6'-(3-methoxybenzoyl)-2-oxo-1',6',7',7a'-tetrahydro-3'H-spiro[indoline-3,5'-pyrrolo[1,2-c]thiazol]-7'-yl)phenyl)octanediamide] | 121.6 to 122.8 °C | 44% | 62% |  |  |
| CN(C)c1ccc(C(=O)[C@H]2[C@H](c3ccc(NC(=O)CCCCCCC(=O)NO)cc3)[C@H]3CSCN3[C@]23C(=O)Nc2ccccc23)cc1 [7m, N^1-(4-((3R,6'S,7'R,7a'S)-6'-(4-(dimethylamino)benzoyl)-2-oxo-1',6',7',7a'-tetrahydro-3'H-spiro[indoline-3,5'-pyrrolo[1,2-c]thiazol]-7'-yl)phenyl)-N^8-hydroxyoctanediamide] | 148.7 to 150 °C | 40% | 68% |  |  |
| O=C(CCCCCCC(=O)Nc1ccc([C@@H]2[C@H]3CSCN3[C@]3(C(=O)Nc4ccccc43)[C@H]2C(=O)c2cccc(Br)c2)cc1)NO [7n, N^1-(4-((3R,6'S,7'R,7a'S)-6'-(3-bromobenzoyl)-2-oxo-1',6',7',7a'-tetrahydro-3'H-spiro[indoline-3,5'-pyrrolo[1,2-c]thiazol]-7'-yl)phenyl)-N^8-hydroxyoctanediamide] | 120.2 to 121.5 °C | 43% | 69% |  |  |
| O=C(CCC(=O)Nc1ccc([C@@H]2[C@H]3CSCN3[C@]3(C(=O)Nc4ccccc43)[C@H]2C(=O)c2ccccc2)cc1)NO [7o, N^1-(4-((3R,6'S,7'R,7a'S)-6'-benzoyl-2-oxo-1',6',7',7a'-tetrahydro-3'H-spiro[indoline-3,5'-pyrrolo[1,2-c]thiazol]-7'-yl)phenyl)-N^4-hydroxysuccinamide] | 145.1 to 146.3 °C | 43% | 54% |  |  |
| O=C(CCCCC(=O)Nc1ccc([C@@H]2[C@H]3CSCN3[C@]3(C(=O)Nc4ccccc43)[C@H]2C(=O)c2ccccc2)cc1)NO [7p, N^1-(4-((3R,6'S,7'R,7a'S)-6'-benzoyl-2-oxo-1',6',7',7a'-tetrahydro-3'H-spiro[indoline-3,5'-pyrrolo[1,2-c]thiazol]-7'-yl)phenyl)-N^6-hydroxyadipamide] | 140.3 to 141.7 °C | 44% | 60% |  |  |
| O=C(CCCCCCCCC(=O)Nc1ccc([C@@H]2[C@H]3CSCN3[C@]3(C(=O)Nc4ccccc43)[C@H]2C(=O)c2ccccc2)cc1)NO [7q, N^1-(4-((3R,6'S,7'R,7a'S)-6'-benzoyl-2-oxo-1',6',7',7a'-tetrahydro-3'H-spiro[indoline-3,5'-pyrrolo[1,2-c]thiazol]-7'-yl)phenyl)-N^10-hydroxydecanediamide] | 131.9 to 132.1 °C | 42% | 71% |  |  |
| O=C(CCCCC(=O)Nc1ccc([C@@H]2[C@H]3CSCN3[C@]3(C(=O)Nc4cc(Cl)ccc43)[C@H]2C(=O)c2ccccc2)cc1)NO [7r, N^1-(4-((3R,6'S,7'R,7a'S)-6'-benzoyl-6-chloro-2-oxo-1',6',7',7a'-tetrahydro-3'H-spiro[indoline-3,5'-pyrrolo[1,2-c]thiazol]-7'-yl)phenyl)-N^6-hydroxyadipamide] | 160.6 to 161.9 °C | 61% | 55% |  |  |
| N^1-(4-((3R,6'S,7'R,7a'S)-6-chloro-2-oxo-6'-(thiophene-2-carbonyl)-1',6',7',7a'-tetrahydro-3'H-spiro[indoline-3,5'-pyrrolo[1,2-c]thiazol]-7'-yl)phenyl)-N^6-hydroxyadipamide [15c] |  |  |  | 49% | 70% |
| N^1-(4-((3R,6'S,7'R,7a'S)-6-chloro-6'-(4-(dimethylamino)benzoyl)-2-oxo-1',6',7',7a'-tetrahydro-3'H-spiro[indoline-3,5'-pyrrolo[1,2-c]thiazol]-7'-yl)phenyl)-N^6-hydroxyadipamide [7y] |  |  |  | 54% | 71% |
| N^1-(4-((3R,6'S,7'R,7a'S)-6-chloro-6'-(furan-2-carbonyl)-2-oxo-1',6',7',7a'-tetrahydro-3'H-spiro[indoline-3,5'-pyrrolo[1,2-c]thiazol]-7'-yl)phenyl)-N^6-hydroxyadipamide [15b] |  |  |  | 48% | 70% |
